Results from publication PMC9738179, “New Nucleic Base-Tethered Trithiolato-Bridged Dinuclear Ruthenium(II)-Arene Compounds: Synthesis and Antiparasitic Activity” (Molecules, 2022).
Several values for one entry are separate records, joined by “and”; a condition that tells them apart may be missing. Identical values can stand only once. Entries after “also recorded” stand apart in the source; their conditions may differ. Like-named read-outs stand apart in the source and are kept apart here.

Assays:
[1] = tested on: human foreskin fibroblasts (HFF); settings: cited from earlier work
[2] = tested on: T. gondii β-gal tachyzoites; parameters: method as in PMID 32347622, doi:10.3390/inorganics9080059, PMID 34144354; settings: previously reported, ref [93],[96],[111], cited from earlier work
[3] = Stability in DMSO-d6 by 1H NMR (5 min vs 100 days); type: physicochemical; settings: 25 °C, 5 min and 100 days after sample preparation, stored at 0-5 °C in the dark
Description: For the biological activity evaluation, 1 mM stock solutions of all compounds were prepared in dimethylsulfoxide (DMSO).
The conjugates are well soluble in DMSO, solvent used to prepare standard solutions for biological […]
To assess their stability, compounds 4, 24, 28, 33 and 39 were dissolved in DMSO-d6, and two 1H NMR spectra were recorded at 25°C 5 min and at least 100 days after sample preparation (Figures S1 and S2).
Between the two experiments, the samples were stored at 0°C. For all compounds, there are no significant changes between the spectrum recorded after 5 min and the spectrum recorded after at least […]
further biological tests.
Figure S1. […]

[4] = tested on: T. gondii β-gal tachyzoites; settings: cited from earlier work
[5] = tested on: human foreskin fibroblasts (HFF); assay: Cytotoxicity in non-infected HFF by alamarBlue assay; type: cell-based
Description: (§1) The screening cascade for the compounds was described in former studies. All compounds were prepared as 1 mM stock solutions from powder, in dimethyl sulfoxide (DMSO, Sigma, St. Louis, MO, USA). For in vitro activity and cytotoxicity assays, HFF were seeded at 5 × 10^3/well and allowed to grow to confluence in phenol-red free culture medium at 37 °C and 5% CO2. T. gondii tachyzoites were released from host cells, and HFF monolayers were infected with freshly isolated parasites (1 × 10^3/well), and compounds were added concomitantly with infection.
(§2) Cytotoxicity assays using uninfected confluent HFF host cells were performed by the alamarBlue assay as previously reported. Confluent HFF monolayers in 96 well-plates were exposed to 0.1, 1, and 2.5 μM of each compound. Non-treated HFF as well as DMSO controls (0.01%, 0.1%, and 0.25%) were included. After 72 h of incubation at 37 °C/5% CO2, the medium was removed, and the plates were washed once with PBS. Resazurin suspended in PBS to a final concentration of 0.01 g/L was added to each well (200 μL/well). Fluorescence was measured at excitation wavelength 530 nm and emission wavelength […] using an EnSpire® multimode plate reader (PerkinElmer, Inc, Waltham, MA, USA). The cytotoxicity values were calculated as percentage of the respective DMSO control, which represented 100% of HFF viability.

[6] = tested on: T. gondii β-gal tachyzoites; assay: Dose-response study (IC50) against T. gondii β-gal tachyzoites; type: cell-based, Toxoplasma gondii; settings: 8 serial concentrations 0.007-1 µM, 72 h
Description: as §1
For the dose-response study (IC50 values), measurements for T. gondii β-gal were performed. The selected compounds were added concomitantly with infection in 8 serial concentrations 0.007, 0.01, 0.03, 0.06, 0.12, 0.25, 0.5, and 1 μM.
(§3) To measure the activity of the tested compound on T. gondii β-gal parasites, after a period of 72 h of culture at 37 °C/5% CO2, the culture medium was aspirated, and cells were permeabilized by adding 90 μL PBS (phosphate buffered saline) with 0.05% Triton X-100. Next, 10 μL of 5 mM chlorophenolred-β-D-galactopyranoside (CPRG; Roche Diagnostics, Rotkreuz, Switzerland, substrate for the β-galactosidase) in PBS were added. Release of chlorophenol red was measured at 570 nm using an EnSpire® multimode plate reader (PerkinElmer, Inc., Waltham, MA, USA). A 100% proliferation of T. gondii β-gal was assigned to control parasites treated only with DMSO. For the primary screening at 0.1 and 1 μM, the activity was measured as the release of chlorophenol red over time and was calculated as percentage from the respective DMSO treated control, which represented 100% of T. gondii β-gal growth.
For the IC50 assays, the activity measured as the release of chlorophenol red over time was proportional to the number of live parasites down to 50 per well as determined in pilot assays. IC50 values were calculated after the logit-log-transformation of relative growth and subsequent regression analysis. All calculations were performed using the corresponding software tool contained in the Excel software package (Microsoft, Redmond, WA, USA).

[7] = tested on: T. gondii β-gal tachyzoites; assay: Primary screening: T. gondii β-gal proliferation in HFF monolayers at 0.1 and 1 µM (CPRG readout); type: cell-based, Toxoplasma gondii; settings: tachyzoites cultured in HFF, 72 h, relative to DMSO control
Description: as §1
In the primary screening, HFF monolayers infected with T. gondii β-gal were treated with 0.1 and 1 µM of each compound, or the corresponding concentration of DMSO (0.01 or 0.1%, respectively) as controls and were incubated for 72 h at 37 °C/5% CO2 as previously described.
as §3

[8] = tested on: T. brucei bloodstream forms; parameters: method as in PMID 34639127; settings: ref [126]; cited from earlier work
[9] = Cytotoxicity in non-infected HFF by alamarBlue assay; type: cell-based, human; settings: human, non-infected HFF, 72 h, relative to DMSO control, triplicate
Description: as §1, §2

[10] = 0.1 µM, non-infected HFF, previously reported, ref [93],[96],[111]
[11] = 1 µM, non-infected HFF, previously reported, ref [93],[96],[111]
[12] = 0.1 µM, non-infected HFF, 72 h, relative to DMSO control, triplicate
[13] = 2.5 µM, control 0.25% DMSO = 100%, six replicates
[14] = 1 µM, non-infected HFF, 72 h, relative to DMSO control, triplicate

Compound	Stability in DMSO-d6 (1H NMR spectra) [3]	HFF Viability (%) [5, 12] [%]	T. gondii β-gal Growth (%) ([7]; 0.1 µM)	viability at 72 h, 0.1 µM [9] [%]	viability at 72 h, 1 µM [9] [%]	T. gondii β-gal Growth (%) ([7]; 1 µM)	further results
CC(C)(C)c1ccc(C[S+]2[Ru-]3[S+](Cc4ccc(C(C)(C)C)cc4)[Ru-]2[S+]3c2ccc(CC(=O)O)cc2)cc1.Cc1ccc(C(C)C)cc1.Cc1ccc(C(C)C)cc1.[Cl-] (centres unmarked) [Compound 3]							HFF Viability (%) [1, 10]: 91 ± 4%; HFF Viability (%) [1, 11]: 73 ± 1%; HFF viability at 2.5 µM ([1]; 2.5 µM, intermediates previously reported, not in Table 2, ref [93],[111]): did not affect HFF viability; T. gondii β-gal Growth (%) ([2]; 0.1 µM): 114 ± 2%; T. gondii β-gal Growth (%) ([2]; 1 µM): 110 ± 2%
CC(C)(C)c1ccc(C[S+]2[Ru-]3[S+](Cc4ccc(C(C)(C)C)cc4)[Ru-]2[S+]3c2ccccc2CO)cc1.Cc1ccc(C(C)C)cc1.Cc1ccc(C(C)C)cc1.[Cl-] (centres unmarked) [Compound 4]	very good stability; also recorded: no modifications						HFF Viability (%) [1, 10]: 80 ± 1%; HFF Viability (%) [1, 11]: 69 ± 6%; HFF Viability (%) ([1]; 2.5 µM, compound reported earlier, ref [96]): 4%; IC50 ([4]; compound reported earlier, ref [96]): 0.038 µM; T. gondii β-gal Growth (%) ([2]; 0.1 µM): 2 ± 0%; T. gondii β-gal Growth (%) ([2]; 1 µM): 1 ± 0%
C#CCNC(=O)Cc1ccc([S+]2[Ru-]3[S+](Cc4ccc(C(C)(C)C)cc4)[Ru-]2[S+]3Cc2ccc(C(C)(C)C)cc2)cc1.Cc1ccc(C(C)C)cc1.Cc1ccc(C(C)C)cc1.[Cl-] (centres unmarked) [Compound 8]							T. gondii β-gal Growth (%) ([2]; 0.1 µM): 52 ± 13%; T. gondii β-gal Growth (%) ([2]; 1 µM): 3 ± 1%
CC(C)(C)c1ccc(C[S+]2[Ru-]3[S+](Cc4ccc(C(C)(C)C)cc4)[Ru-]2[S+]3c2ccc(CC(=O)OCCn3cnc4c(N)ncnc43)cc2)cc1.Cc1ccc(C(C)C)cc1.Cc1ccc(C(C)C)cc1.[Cl-] (centres unmarked) [Compound 14]		95 ± 11	12 ± 1				HFF Viability (%) [5, 13]: low toxicity and medium toxicity and 76%; IC50 [6]: 0.059 µM; Activity against T. brucei bloodstream forms [8]: highly active
C#CCn1ccc(=O)[nH]c1=O.C#CCn1ccc(=O)[nH]c1=O [Compound 15]			109 ± 5	107 ± 2	96 ± 2	83 ± 0	
C#CCn1cc(C)c(=O)[nH]c1=O.C#CCn1cc(C)c(=O)[nH]c1=O [Compound 16]			96 ± 8	104 ± 2	103 ± 3	95 ± 6	
C#CCn1ccc(N)nc1=O.C#CCn1ccc(N)nc1=O [Compound 17]			111 ± 5	96 ± 1	93 ± 1	90 ± 7	
C#CCn1cnc2c(N)ncnc21.C#CCn1cnc2c(N)ncnc21 [Compound 18]			117 ± 4	96 ± 2	89 ± 3	91 ± 6	
Cc1ccc(C(C)C)cc1.Cc1ccc(C(C)C)cc1.Cc1cn(Cc2cn(-c3ccc([S]4[Ru]5[S](Cc6ccc(C(C)(C)C)cc6)[Ru+]4[S]5Cc4ccc(C(C)(C)C)cc4)cc3)nn2)c(=O)[nH]c1=O.[Cl-] [Compound 24]	very good stability; also recorded: no modifications	98 ± 10	56 ± 15				HFF Viability (%) [5, 14]: 96 ± 4%; HFF Viability (%) [5, 13]: 85%; IC50 [6]: 0.357 µM
[N-]=[N+]=NCc1cc(=O)[nH]c(=O)[nH]1 [Compound 27, 6-(azidomethyl)uracil]			101 ± 5	98 ± 5	102 ± 3	99 ± 11	
NC(=O)CCCc1cn(Cc2cc(=O)[nH]c(=O)[nH]2)nn1 [Compound 28]	very good stability; also recorded: no modifications	101 ± 1					
[N-]=[N+]=NCCn1cnc2c(N)ncnc21 [Compound 32]			103 ± 8	104 ± 2	103 ± 3	94 ± 2	
CNc1cn(CCn2cnc3c(N)ncnc32)nn1 [Compound 33]	very good stability; also recorded: no modifications	84 ± 6	94 ± 11			83 ± 11	HFF Viability (%) [5, 14]: 71 ± 3%
CC(C)(C)c1ccc(C[S]2[Ru]3[S](Cc4ccc(C(C)(C)C)cc4)[Ru+]2[S]3c2ccc(-n3cc(-c4ccccn4)nn3)cc2)cc1.Cc1ccc(C(C)C)cc1.Cc1ccc(C(C)C)cc1.[Cl-] [Compound 39]	very good stability; also recorded: no modifications	94 ± 2	14 ± 1			0 ± 0	HFF Viability (%) [5, 14]: 90 ± 1%; HFF Viability (%) [5, 13]: highly toxic and 1%; IC50 [6]: 0.075 µM
CCc1nc(N)nc(N)c1-c1ccc(Cl)cc1 [Pyrimethamine, reference compound]							HFF Viability (%) ([1]; 2.5 µM, reference compound, ref [93]): 99%; IC50 ([4]; reference compound, ref [93]): 0.326 µM
